Measurements taken from the NIST ThermoML archive (doi:10.1016/j.jct.2019.01.025).

Assays:
[1] = 101.33 kPa, Liquid, Vibrating tube method
[2] = xn = mol fraction of the nth substance listed; details: 100 kPa, Liquid, Vibrating tube method

CC(C)CO [2-methyl-1-propanol]
[1]
Details	mass density [kg/m3]
293.15 K	801.85
298.15 K	797.99
303.15 K	794.03
308.15 K	790.09
313.15 K	786.12
318.15 K	781.97
323.15 K	777.86

CCCCO [butan-1-ol] + NCCO
[2], x2 = 0
Details	mass density [kg/m3]
293.15 K	809.77
298.15 K	805.92
303.15 K	802
308.15 K	798.14
313.15 K	794.24
318.15 K	790.2
323.15 K	786.21

NCCO [2-aminoethan-1-ol] + CC(C)O
mass density [kg/m3], [2]
Details	x1 = 0.0986	x1 = 0.1974	x1 = 0.2966	x1 = 0.3961	x1 = 0.496	x1 = 0.5961	x1 = 0.6966	x1 = 0.7974	x1 = 0.8985	x1 = 1
293.15 K	804.43	824.39	844.97	868.88	891.61	915.69	939.56	965.29	989.95	1016.47
298.15 K	800.28	820.25	840.83	864.78	887.55	911.65	935.53	961.29	985.96	1012.53
303.15 K	795.98	815.98	836.58	860.58	883.37	907.48	931.4	957.17	981.86	1008.47
308.15 K	791.72	811.76	832.38	856.42	879.25	903.38	927.32	953.13	977.84	1004.49
313.15 K	787.39	807.48	828.13	852.23	875.1	899.25	923.23	949.07	973.81	1000.5
318.15 K	782.87	803.04	823.74	847.9	870.82	895	919	944.88	969.66	996.39
323.15 K	778.38	798.63	819.42	843.64	866.61	890.84	914.87	940.8	965.62	992.41

NCCO [2-aminoethan-1-ol] + CC(C)CO
mass density [kg/m3], [2]
Details	x1 = 0.1188	x1 = 0.2328	x1 = 0.3421	x1 = 0.4472	x1 = 0.5482	x1 = 0.6454	x1 = 0.739	x1 = 0.8291	x1 = 0.9161	x1 = 1
293.15 K	819.76	840.36	859.83	880.16	901.41	923.2	946.54	967.04	992.18	1016.47
298.15 K	815.85	836.42	855.88	876.22	897.44	919.26	942.54	963.08	988.22	1012.53
303.15 K	811.84	832.41	851.83	872.2	893.38	915.22	938.44	959.04	984.12	1008.47
308.15 K	807.88	828.46	847.85	868.25	889.39	911.26	934.38	955.07	980.15	1004.49
313.15 K	803.87	824.49	843.85	864.27	885.38	907.27	930.38	951.07	976.15	1000.5
318.15 K	799.72	820.35	839.71	860.15	881.25	903.15	926.19	946.97	972.04	996.39
323.15 K	795.62	816.29	835.65	856.12	877.2	899.14	922.11	942.97	968.05	992.41

CCO [ethanol] + NCCO
[2], x2 = 0
Details	mass density [kg/m3]
293.15 K	789.4
298.15 K	785.13
303.15 K	780.75
308.15 K	776.41
313.15 K	772.04
318.15 K	767.52
323.15 K	763.04

CCCO [propan-1-ol] + NCCO
[2], x2 = 0
Details	mass density [kg/m3]
293.15 K	803.77
298.15 K	799.69
303.15 K	795.58
308.15 K	791.52
313.15 K	787.42
318.15 K	783.17
323.15 K	778.96

NCCO [2-aminoethan-1-ol] + CCO
mass density [kg/m3], [2]
Details	x1 = 0.0773	x1 = 0.1586	x1 = 0.2443	x1 = 0.3346	x1 = 0.43	x1 = 0.5308	x1 = 0.6377	x1 = 0.7511	x1 = 0.8716	x1 = 1
293.15 K	810.46	831.93	853.39	876.12	899.09	921.99	945.08	968.64	992.58	1016.47
298.15 K	806.22	827.71	849.2	871.96	894.95	917.9	941.02	964.62	988.58	1012.53
303.15 K	801.86	823.37	844.9	867.69	890.7	913.65	936.83	960.48	984.46	1008.47
308.15 K	797.55	819.07	840.65	863.47	886.5	909.55	932.73	956.42	980.42	1004.49
313.15 K	793.21	814.75	836.38	859.23	882.29	905.4	928.6	952.34	976.38	1000.5
318.15 K	788.71	810.29	831.96	854.85	877.94	901.1	924.34	948.13	972.21	996.39
323.15 K	784.27	805.9	827.62	850.55	873.69	896.9	920.19	944.04	968.17	992.41

NCCO [2-aminoethan-1-ol] + CC(C)(C)O
mass density [kg/m3], [2]
Details	x1 = 0.1188	x1 = 0.2328	x1 = 0.3421	x1 = 0.4472	x1 = 0.5482	x1 = 0.6454	x1 = 0.739	x1 = 0.8291	x1 = 0.9161	x1 = 1
298.15 K	801.37	821.17	842.86	865.97	887.94	912.32	938.36	962.65	988.97	1012.53
303.15 K	796.64	816.75	838.57	861.74	883.79	908.2	934.25	958.59	984.91	1008.47
308.15 K	791.93	812.34	834.31	857.55	879.69	904.13	930.2	954.6	980.92	1004.49
313.15 K	787.14	807.85	829.98	853.33	875.55	900.04	926.15	950.59	976.92	1000.5
318.15 K	782.16	803.17	825.49	848.95	871.27	895.8	921.97	946.45	972.81	996.39
323.15 K	777.17	798.52	821.03	844.64	867.05	891.65	917.86	942.41	968.8	992.41

NCCO [2-aminoethan-1-ol] + CCCCO
mass density [kg/m3], [2]
Details	x1 = 0.1188	x1 = 0.2328	x1 = 0.3421	x1 = 0.4472	x1 = 0.5482	x1 = 0.6454	x1 = 0.739	x1 = 0.8291	x1 = 0.9161	x1 = 1
293.15 K	828.26	846.15	864.71	884.56	904.81	925.84	947.05	969.79	993.15	1016.47
298.15 K	824.33	842.24	860.76	880.66	900.83	921.87	943.04	965.8	989.15	1012.53
303.15 K	820.32	838.27	856.75	876.66	896.78	917.83	938.98	961.75	985.1	1008.47
308.15 K	816.39	834.35	852.81	872.72	892.82	913.86	935	957.78	981.13	1004.49
313.15 K	812.46	830.41	848.84	868.77	888.83	909.88	931	953.79	977.14	1000.5
318.15 K	808.37	826.33	844.74	864.67	884.72	905.76	926.88	949.68	973.04	996.39
323.15 K	804.35	822.32	840.73	860.67	880.7	901.75	922.86	945.68	969.05	992.41

NCCO [2-aminoethan-1-ol] + CCCO
mass density [kg/m3], [2]
Details	x1 = 0.0986	x1 = 0.1974	x1 = 0.2966	x1 = 0.3961	x1 = 0.496	x1 = 0.5961	x1 = 0.6966	x1 = 0.7974	x1 = 0.8985	x1 = 1
293.15 K	823.05	842.4	862.05	882.56	903.81	924.46	946.99	969.87	992.94	1016.47
298.15 K	818.95	838.27	857.94	878.51	899.73	920.46	942.97	965.86	988.96	1012.53
303.15 K	814.83	834.12	853.8	874.37	895.6	916.36	938.85	961.75	984.88	1008.47
308.15 K	810.75	830.03	849.74	870.31	891.55	912.32	934.79	957.71	980.88	1004.49
313.15 K	806.64	825.91	845.63	866.21	887.47	908.27	930.72	953.68	976.87	1000.5
318.15 K	802.38	821.65	841.39	861.99	883.26	904.08	926.53	949.53	972.75	996.39
323.15 K	798.19	817.46	837.23	857.84	879.14	899.9	922.45	945.49	968.76	992.41

CC(C)O [propan-2-ol] + NCCO
[2], x2 = 0
Details	mass density [kg/m3]
293.15 K	785.1
298.15 K	780.91
303.15 K	776.57
308.15 K	772.24
313.15 K	767.82
318.15 K	763.19
323.15 K	758.55

CC(C)(C)O [2-methylpropan-2-ol] + NCCO
[2], x2 = 0
Details	mass density [kg/m3]
298.15 K	780.61
303.15 K	775.42
308.15 K	770.21
313.15 K	764.92
318.15 K	759.42
323.15 K	753.95

CC(C)CO [2-methyl-1-propanol] + NCCO
[2], x2 = 0
Details	mass density [kg/m3]
293.15 K	801.85
298.15 K	797.99
303.15 K	794.03
308.15 K	790.09
313.15 K	786.12
318.15 K	781.97
323.15 K	777.86
